# Measurements published in paper PMC9266550, “The 2-hydroxy-3-(4-aryl-1-piperazinyl)propyl Phthalimide Derivatives as Prodrugs—Spectroscopic and Theoretical Binding Studies with Plasma Proteins” (International Journal of Molecular Sciences, 2022).
# Legend:
# [1] = biological target: T1, bovine α1-acid glycoprotein (AAG), orosomucoid (Bos taurus, UniProt Q3SZR3); test: intrinsic fluorescence quenching, excitation […] nm; format: binding; conditions: 297 K, phosphate buffer pH 7.5; double-log
# T1 construct: gene ORM1; native plasma glycoprotein, commercial (Sigma-Aldrich), mature form
# T1 sequence (Q3SZR3 19-202): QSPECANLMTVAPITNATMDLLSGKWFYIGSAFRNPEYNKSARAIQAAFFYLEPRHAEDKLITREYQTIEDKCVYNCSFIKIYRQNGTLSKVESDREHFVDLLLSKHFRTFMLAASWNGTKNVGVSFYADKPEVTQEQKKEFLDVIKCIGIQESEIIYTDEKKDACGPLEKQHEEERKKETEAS
# [2] = biological target: T2, bovine serum albumin (BSA) (Bos taurus, UniProt P02769); test: intrinsic fluorescence quenching, excitation […] nm; format: binding; conditions: 297 K, phosphate buffer pH 7.5, no site marker; double-log
# T2 construct: gene ALB; native plasma protein, commercial (Sigma-Aldrich), mature form
# T2 sequence (P02769 25-607): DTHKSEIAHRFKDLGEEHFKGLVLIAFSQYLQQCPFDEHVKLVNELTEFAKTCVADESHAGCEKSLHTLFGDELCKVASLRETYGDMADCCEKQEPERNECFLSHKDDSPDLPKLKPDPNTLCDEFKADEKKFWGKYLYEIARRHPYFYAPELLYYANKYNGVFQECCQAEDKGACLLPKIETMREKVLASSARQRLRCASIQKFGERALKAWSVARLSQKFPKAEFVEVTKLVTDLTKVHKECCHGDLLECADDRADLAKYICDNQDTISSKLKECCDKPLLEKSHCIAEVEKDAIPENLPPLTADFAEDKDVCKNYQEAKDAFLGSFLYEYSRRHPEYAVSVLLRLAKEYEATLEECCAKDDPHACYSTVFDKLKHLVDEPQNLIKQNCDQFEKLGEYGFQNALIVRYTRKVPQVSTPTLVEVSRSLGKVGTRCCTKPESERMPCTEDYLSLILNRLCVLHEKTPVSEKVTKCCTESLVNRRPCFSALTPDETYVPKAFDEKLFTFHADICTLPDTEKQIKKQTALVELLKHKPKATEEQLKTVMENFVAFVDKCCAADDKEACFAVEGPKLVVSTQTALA
Binding / Kb × 10^3 [dm^3.mol^-1] [1],Binding / Kb × 10^5 [dm^3.mol^-1] [2],SMILES
4.17 × 10^3 dm^3·mol^−1,1.75 × 10^5 dm^3·mol^−1,O=C1c2ccccc2C(=O)N1CC(O)CN1CCN(c2cccc(C(F)(F)F)c2)CC1 (centres unmarked) [F3]
2.12 × 10^3 dm^3·mol^−1,2.13 × 10^5 dm^3·mol^−1,O=C1c2ccccc2C(=O)N1CC(O)CN1CCN(c2ccccc2)CC1 (centres unmarked) [F1]
1.21 × 10^3 dm^3·mol^−1,0.55 × 10^5 dm^3·mol^−1,COc1ccccc1N1CCN(CC(O)CN2C(=O)c3ccccc3C2=O)CC1 (centres unmarked) [F2]
2.75 × 10^3 dm^3·mol^−1,1.99 × 10^5 dm^3·mol^−1,O=C1c2ccccc2C(=O)N1CC(O)CN1CCN(C(c2ccccc2)c2ccccc2)CC1 (centres unmarked) [F4]
